The text below walks through data of patent US9340577B2, “HLA binding motifs and peptides and their uses” (priority 1992, dated 2016).

What all share (experiment): biochemical
For one assay, the target named is DR7 (DRB1*0701) (Homo sapiens, UniProt P01903+P01911, A100R/A102G/A103Q/D57E/D86V/E43K/F76Y/K127E/L162R/M171V/P40G/Q125H/Q99D/R33Q/R42Y/R54Q/S133A/S66F/T210M/V115G/Y107V/Y59L/Y89S). It counts as binding.
The target of a further assay is DRB1*1101 (Homo sapiens, UniProt P01903+P01911, A100R/A169T/A87E/I96F/K41T/L162R/M171V/P40S/Q125H/Q178H/Q39Y/Q99D/R42S/S66Y/T262R/V115G/W38E).
For the next assay, the target named is DRB5*0101 (Homo sapiens, UniProt P01903+Q30154).
A further assay deals with DRB1*1501 (Homo sapiens, UniProt P01903+P01911). In kind it is binding.
Another assay has as its target DRB3*0101 (Homo sapiens, UniProt P01903+P79483). In kind it is binding.
In a further assay the target is DRB1*0301 (Homo sapiens, UniProt P01903+P01911, A100K/A102G/A103R/A169T/F55Y/I96L/K41T/L162R/M171V/P40S/Q125H/Q178H/Q39Y/R42S/S66N/T106N/T262R/W38E/Y61H). In kind it is binding.
For another assay, the target named is DR4w4 (DRB1*0401) (Homo sapiens, UniProt P01903+P01911, A100K/A169T/F76Y/I96L/K127E/L162R/M171V/N62H/P40V/Q125Y/R42H/S133A/S149N/S66Y/V115G/V209L/W38E). In kind it is binding.
The target of another assay is DRB1*1201 (Homo sapiens, UniProt P01903+P01911, A100R/A169T/D57E/D86V/F55L/H45Y/K41T/L162R/M171V/P40S/Q125H/Q178H/Q39Y/Q99D/R42G/S66L/T262R/V114A/V67L/W38E/Y59H/Y61H/Y89S). It counts as binding.
The target of the next assay is DRB4*0101 (Homo sapiens, UniProt P01903+P13762, G164S). In kind it is binding.
Another assay has as its target DRB1*0802 (Homo sapiens, UniProt P01903+P01911, A100R/A103L/A169T/F76Y/H45Y/I96F/K41T/L162R/M171V/P40S/Q125H/Q178H/Q39Y/Q99D/R218S/R42G/S66Y/V115G/W38E). In kind it is binding.
In the next assay the target is DRB1*0901 (Homo sapiens, UniProt P01903+P01911, A100R/A103E/D57H/D86V/F55Y/F60I/F76Y/I96F/K127E/L162R/M171V/P40D/Q125H/Q99R/R33Q/R42F/S133A/S66N/T210M/V115G/W38K/Y107V/Y59G/Y89S). It counts as binding.
Another assay concerns the target DRB1*1302 (Homo sapiens, UniProt P01903+P01911, A100E/A169T/K41T/L162R/M171V/P40S/Q125H/Q178H/Q39Y/Q99D/R42S/S66N/T262R/V115G/W38E/Y61H). In kind it is binding.
A further assay concerns the target DRB1*0405 (Homo sapiens, UniProt P01903+P01911, A100R/A169T/D86S/F76Y/I96L/K127E/L162R/M171V/N62H/P40V/Q125Y/R42H/S133A/S149N/S66Y/V115G/V209L/W38E). In kind it is binding.
Another assay has as its target DR1 (DRB1*0101) (Homo sapiens, UniProt P01903+P01911, A100R/D57E/F55L/F60I/F76Y/I96L/L162R/M171V/P40L/Q125E/R42F/V115G/Y59C). In kind it is binding.

No end group written: not given here.

DRB1*1302, sequence (P01903 26-254 limits assumed, other chains not shown): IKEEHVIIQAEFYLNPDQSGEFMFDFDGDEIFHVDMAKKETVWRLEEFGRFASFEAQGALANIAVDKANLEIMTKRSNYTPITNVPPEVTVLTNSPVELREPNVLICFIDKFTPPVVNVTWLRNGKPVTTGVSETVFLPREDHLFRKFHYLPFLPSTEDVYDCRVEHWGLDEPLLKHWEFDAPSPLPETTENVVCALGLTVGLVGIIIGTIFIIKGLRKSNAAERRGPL
DRB1*0301, sequence (P01903 26-254 limits assumed, other chains not shown): as above
DRB1*1101, sequence (P01903 26-254 limits assumed, other chains not shown): as above

As usually defined, the IC50 is the concentration at which inhibition is half-maximal. A high value points to a need for much substance. In the case of VVTIPNSVQISVGYM [Peptide 1601.41], the IC50 is 0.071 µM against DR7 (DRB1*0701); 4.22 µM on DRB1*1101 (Binding affinity DRB1 *1101); greater than 20 µM on DRB5*0101 (Binding affinity DRB5 *0101); 3.44 µM at DRB1*1501; greater than 20 µM on DRB3*0101; greater than 20 µM against DRB1*0301. For the same compound, the IC50 on DR4w4 (DRB1*0401) was 0.835 µM.
Consider `CC[C@H](C)[C@H](N)C(=O)N[C@@H](CO)C(=O)N[C@H](C(=O)N[C@H](C(=O)N[C@@H](CC(N)=O)C(=O)N[C@@H](CCC(=O)O)C(=O)N[C@@H](CC(=O)O)C(=O)NCC(=O)N[C@@H](CC(N)=O)C(=O)N[C@@H](CCC(=O)O)C(=O)N[C@H](C(=O)N[C@@H](Cc1ccccc1)C(=O)N[C@@H](CC(N)=O)C(=O)N[C@H](C(=O)N[C@@H](CO)C(=O)O)[C@@H](C)O)[C@@H](C)CC)[C@@H](C)CC)[C@@H](C)CC` [Peptide 68.0166], for which the IC50 against DRB1*1201 was 10.7 µM; at DR7 (DRB1*0701), greater than 20 µM; on DRB1*1101 (Binding affinity DRB1 *1101) it was greater than 20 µM; against DRB1*1101 (DRB1*1101), greater than 18.9 µM; at DRB4*0101, 6.39 µM; on DRB5*0101 (Binding affinity DRB5 *0101) it was greater than 20 µM. The IC50 at DRB5*0101 (DRB5*0101) is greater than 37.8 µM; on DRB1*0802 it was greater than 20 µM; at DRB1*1501, 3.01 µM; against DRB1*0901, greater than 20 µM; against DRB3*0101, 0.035 µM; against DR4w4 (DRB1*0401), greater than 20 µM.
As for SADDLRAFQQLFLNT [Peptide 1543.07], the IC50 worked out at 3.13 µM at DRB1*1302; 0.411 µM against DRB1*0405; 0.305 µM against DRB1*1201; 0.124 µM on DR7 (DRB1*0701); 0.295 µM at DR1 (DRB1*0101); 3.59 µM at DRB1*1101 (Binding affinity DRB1 *1101). The IC50 against DRB4*0101 was 0.27 µM; at DRB5*0101 (Binding affinity DRB5 *0101), greater than 20 µM; against DRB1*0802, 7 µM; at DRB1*0901, 0.559 µM; on DRB3*0101 it was greater than 20 µM.
As to QKGRGYRGQHQAHSLERVCH [Peptide F025.05], the IC50 at DRB1*1101 ([…]), against DRB1*1501, against DRB3*0101 and against DRB1*0301 was greater than 20 µM throughout.
`CC[C@H](C)[C@H](NC(=O)[C@@H](N)CCCCN)C(=O)N[C@@H](Cc1ccccc1)C(=O)NCC(=O)N[C@@H](CO)C(=O)N[C@@H](CC(C)C)C(=O)N[C@@H](C)C(=O)N[C@@H](Cc1ccccc1)C(=O)N[C@@H](CC(C)C)C(=O)N1CCC[C@H]1C(=O)N[C@@H](CCC(=O)O)C(=O)N[C@@H](CO)C(=O)N[C@@H](Cc1ccccc1)C(=O)N[C@@H](CC(=O)O)C(=O)NCC(=O)N[C@@H](CC(=O)O)C(=O)N1CCC[C@H]1C(=O)N[C@@H](C)C(=O)O` [Peptide 1533.07]: the IC50 on DRB1*1101 (Binding affinity DRB1 *1101), against DRB1*0802, against DRB3*0101 and against DRB1*0301 was greater than 20 µM throughout.
Consider `CC(C)C[C@H](NC(=O)CNC(=O)[C@H](CC(N)=O)NC(=O)[C@H](Cc1ccc(O)cc1)NC(=O)[C@@H](NC(=O)[C@H](CC(=O)O)NC(=O)[C@H](CC(C)C)NC(=O)[C@H](C)N)C(C)C)C(=O)N[C@@H](CC(C)C)C(=O)N1CCC[C@H]1C(=O)N1CCC[C@H]1C(=O)N[C@@H](Cc1ccc(O)cc1)C(=O)N[C@@H](C)C(=O)N[C@@H](CO)C(=O)N[C@@H](CS)C(=O)O` [Peptide 68.0052], for which the IC50 on DRB1*1302 is greater than 20 µM; on DRB1*1201, 7.57 µM; against DR7 (DRB1*0701) it was greater than 20 µM; on DRB4*0101, greater than 20 µM; at DRB5*0101 (Binding affinity DRB5 *0101), greater than 20 µM; on DRB1*0901, greater than 20 µM. This compound gave an IC50 against DRB3*0101 greater than 20 µM.
On to `CSCC[C@H](NC(=O)CNC(=O)CNC(=O)[C@H](CCCNC(=N)N)NC(=O)[C@@H](NC(=O)[C@H](CCC(N)=O)NC(=O)[C@H](C)NC(=O)[C@@H](NC(=O)[C@@H](NC(=O)[C@H](CC(C)C)NC(=O)[C@H](Cc1c[nH]cn1)NC(=O)[C@H](Cc1ccc(O)cc1)NC(=O)[C@@H](N)CCCCN)[C@@H](C)O)C(C)C)C(C)C)C(=O)N[C@H](C(=O)N[C@@H](Cc1ccccc1)C(=O)O)C(C)C` [Peptide 68.0120], for which the IC50 at DRB3*0101 and at DRB1*0301 was greater than 20 µM each time.
Turning to `CC(C)C[C@H](NC(=O)CNC(=O)[C@H](CC(N)=O)NC(=O)[C@H](Cc1ccc(O)cc1)NC(=O)[C@@H](NC(=O)[C@H](CC(=O)O)NC(=O)[C@@H](N)CC(C)C)C(C)C)C(=O)N[C@@H](CC(C)C)C(=O)N1CCC[C@H]1C(=O)N1CCC[C@H]1C(=O)N[C@@H](Cc1ccc(O)cc1)C(=O)N[C@@H](C)C(=O)N[C@@H](CO)C(=O)N[C@@H](CS)C(=O)N[C@@H](Cc1c[nH]cn1)C(=O)O` [Peptide 68.0053], the IC50 on DRB1*1302 is greater than 20 µM; against DRB1*1201, 9.75 µM; on DR7 (DRB1*0701), greater than 20 µM; against DRB4*0101, greater than 20 µM; at DRB5*0101 (Binding affinity DRB5 *0101) it was greater than 20 µM; at DRB1*0901, greater than 20 µM. This compound displayed an IC50 at DRB3*0101 greater than 20 µM.
Turning to `CC(C)C[C@H](NC(=O)CNC(=O)[C@H](CC(N)=O)NC(=O)[C@@H](N)Cc1ccc(O)cc1)C(=O)N[C@@H](CC(C)C)C(=O)N1CCC[C@H]1C(=O)N1CCC[C@H]1C(=O)N[C@@H](Cc1ccc(O)cc1)C(=O)N[C@@H](C)C(=O)N[C@@H](CO)C(=O)N[C@@H](CS)C(=O)N[C@@H](Cc1c[nH]cn1)C(=O)N[C@@H](CC(C)C)C(=O)N[C@H](C(=O)N[C@@H](CCC(=O)O)C(=O)O)[C@@H](C)O` [Peptide 68.0054], the IC50 on DRB1*1201, on DR7 (DRB1*0701), at DRB4*0101 and at DRB3*0101 was greater than 20 µM each time.
With `CC[C@H](C)[C@H](N)C(=O)N[C@@H](CC(C)C)C(=O)N[C@@H](CC(C)C)C(=O)N[C@@H](Cc1c[nH]c2ccccc12)C(=O)N[C@@H](CCC(N)=O)C(=O)N1CCC[C@H]1C(=O)N[C@H](C(=O)N1CCC[C@H]1C(=O)N[C@H](C(=O)N[C@@H](Cc1c[nH]cn1)C(=O)N[C@H](C(=O)N[C@H](C(=O)N1CCC[C@H]1C(=O)N[C@@H](CC(C)C)C(=O)N[C@@H](CO)C(=O)O)C(C)C)[C@@H](C)O)C(C)C)[C@@H](C)CC` [Peptide 68.0038], the IC50 at DRB5*0101 (Binding affinity DRB5 *0101), at DRB3*0101 and against DRB1*0301 was greater than 20 µM throughout.
As to AATYNFAVLKLMGRGTKF [Peptide F025.08], the IC50 on DRB3*0101 and against DRB1*0301 was greater than 20 µM each time.
As to EYILDLHPEPTDLFC [Peptide 1543.51], the IC50 at DRB1*1302 is 4.75 µM; against DRB1*0405 it was 1.14 µM; at DRB1*1201, 2.6 µM; against DR7 (DRB1*0701), greater than 20 µM; against DR1 (DRB1*0101), 0.189 µM; at DRB1*1101 (Binding affinity DRB1 *1101), 19.5 µM. The IC50 is 0.0082 µM on DRB4*0101; greater than 20 µM on DRB5*0101 (Binding affinity DRB5 *0101); 16.3 µM at DRB1*0802; greater than 20 µM against DRB1*1501; greater than 20 µM at DRB1*0901; 0.083 µM against DRB3*0101.
`CC[C@H](C)[C@H](NC(=O)CNC(=O)[C@H](Cc1ccc(O)cc1)NC(=O)[C@H](CC(C)C)NC(=O)[C@H](CO)NC(=O)[C@H](CC(C)C)NC(=O)[C@H](CC(C)C)NC(=O)[C@H](CO)NC(=O)[C@H](CC(C)C)NC(=O)[C@H](CCC(=O)O)NC(=O)[C@H](CO)NC(=O)[C@@H](N)CC(C)C)C(=O)N[C@@H](Cc1c[nH]cn1)C(=O)N[C@@H](CCCCN)C(=O)N[C@@H](CCC(N)=O)C(=O)O` [Peptide 68.0044]: the IC50 against DR7 (DRB1*0701), on DRB3*0101 and on DRB1*0301 was greater than 20 µM in each case.
